How the values were obtained:
Type in all cases: in vivo
[1] = system: Digitaria ciliaris; experiment: Test Example 5: herbicidal effect by foliage application, plastic box (symbol F); settings: 320 g/ha, 3 weeks after application
Outline: (§1)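 Emulsion formulation, diluted with water to the intended rate, was applied uniformly to leaves by small sprayer. Recipients were 14-day greenhouse-grown seedlings (25° C. to 30° C.). Assessment followed at 3 weeks.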

[2] = system: rice plant; experiment: Test Example 5: effect on crop by foliage application, plastic box (symbol b); settings: 320 g/ha, 3 weeks after application
Outline: (§2)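 A greenhouse held between 25° C. and 30° C. was used to grow plants sown spot-wise, beneath ~1.5 cm of soil, in boxes of sterilized diluvial soil.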

[3] = system: wheat; experiment: Test Example 4: effect on crop by soil treatment (symbol e); settings: for e (wheat) effect on crop grade: application herbicide amount 320 g/ha
Outline: (§3)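 Plants grew in a 25° C. to 30° C. greenhouse after spot-sowing of seeds, including beet, rapeseed, wheat and rice, into sterilized diluvial soil under roughly 1.5 cm of cover soil.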

[4] = system: Lolium multiflorum Lam.; experiment: Test Example 5: herbicidal effect by foliage application, plastic box (symbol K); settings: 320 g/ha, 3 weeks after application
Outline: as §1

[5] = system: Stellaria media; experiment: Test Example 5: herbicidal effect by foliage application, plastic box (symbol P); settings: 320 g/ha, 3 weeks after application
Outline: as §1

[6] = system: Setaria viridis; experiment: Test Example 4: herbicidal effect by soil treatment (symbol G); settings: for G (Setaria viridis) herbicidal effect grade: application herbicide amount 320 g/ha
Outline: (§4)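 Seeds were sown in sterilized diluvial soil, covered with about 1.5 cm of soil, and the soil surface was sprayed with a water-diluted emulsion of the compound at a predetermined rate. Plants grew in a greenhouse at 25° C. to 30° C.; effects were scored visually 3 weeks after application.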

[7] = system: corn; experiment: Test Example 5: effect on crop by foliage application, plastic box (symbol c); settings: 320 g/ha, 3 weeks after application
Outline: as §2

[8] = system: Chenopodium album; experiment: Test Example 5: herbicidal effect by foliage application, plastic box (symbol O); settings: 320 g/ha, 3 weeks after application
Outline: as §1

[9] = system: Stellaria media; experiment: Test Example 4: herbicidal effect by soil treatment (symbol P); settings: for P (Stellaria media) herbicidal effect grade: application herbicide amount 320 g/ha
Outline: as §4

[10] = system: Alopecurus myosuroides; experiment: Test Example 5: herbicidal effect by foliage application, plastic box (symbol J); settings: 320 g/ha, 3 weeks after application
Outline: as §1

[11] = system: Echinochloa crus-galli var. crus-galli; experiment: Test Example 3: herbicidal effect by foliage application, Wagner pot (symbol H); settings: application herbicide amount 320 g/ha
Outline: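 Seeds sown in alluvial soil kept under 0.1–0.5 cm water, greenhouse 25–30 °C; 14 d growth. Leaves treated by small sprayer with water-diluted emulsion at a predetermined rate. Effect graded by set scale, 3 weeks.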

[12] = system: soybean; experiment: Test Example 4: effect on crop by soil treatment (symbol d); settings: for d (soybean) effect on crop grade: application herbicide amount 320 g/ha
Outline: as §3

[13] = system: Apera spica-venti; experiment: Test Example 5: herbicidal effect by foliage application, plastic box (symbol L); settings: 320 g/ha, 3 weeks after application
Outline: as §1

[14] = system: directly sowed rice plant; experiment: Test Example 3: effect on crop by foliage application, Wagner pot (symbol b); settings: application herbicide amount 320 g/ha
Outline: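 Steps: fill a 1/10000-are Wagner pot with alluvial soil; add water and mix to submerge at 0.1–0.5 cm depth; sow rice plus Echinochloa crus-galli var. crus-galli, Leptochloa chinensis and Cyperus difformis; grow in a 25–30 °C greenhouse.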

[15] = system: rapeseed; experiment: Test Example 4: effect on crop by soil treatment (symbol g); settings: for g (rapeseed) effect on crop grade: application herbicide amount 320 g/ha
Outline: as §3

[16] = system: Apera spica-venti; experiment: Test Example 4: herbicidal effect by soil treatment (symbol L); settings: for L (Apera spica-venti) herbicidal effect grade: application herbicide amount 320 g/ha
Outline: as §4

[17] = system: Avena fatua; experiment: Test Example 5: herbicidal effect by foliage application, plastic box (symbol I); settings: 320 g/ha, 3 weeks after application
Outline: as §1

Compound | F: Digitaria ciliaris, herbicidal effect grade [1] | b: directly sowed rice plant, effect on crop grade [2] | e (wheat) effect on crop grade [3] | K: Lolium multiflorum Lam., herbicidal effect grade [4] | P: Stellaria media, herbicidal effect grade [5] | G (Setaria viridis) herbicidal effect grade [6] | c: corn, effect on crop grade [7] | O: Chenopodium album, herbicidal effect grade [8] | P (Stellaria media) herbicidal effect grade [9] | J: Alopecurus myosuroides, herbicidal effect grade [10] | herbicidal effect on H (Echinochloa crus-galli var. crus-galli), grade 0-5 [11] | d (soybean) effect on crop grade [12] | L: Apera spica-venti, herbicidal effect grade [13] | effect on crop b (directly sowed rice plant), grade 0-5 [14] | g (rapeseed) effect on crop grade [15] | L (Apera spica-venti) herbicidal effect grade [16] | I: Avena fatua, herbicidal effect grade [17] | also measured
CON=C(CC1CC(O)=C(c2c(C)cc(C)cc2C)C1=O)C(C)(C)C (stereo not shown) [1-059] | 1 (Herbicidal ratio of 5% or higher and lower than 20%) | 4 (Herbicidal ratio of 70% or higher and lower than 90%) | 0 (Herbicidal ratio of 5% or lower (almost no effect)) | 3 (Herbicidal ratio of 40% or higher and lower than 70%) | 0 (Herbicidal ratio of 5% or lower (almost no effect)) | 4 (Herbicidal ratio of 70% or higher and lower than 90%) | 4 (Herbicidal ratio of 70% or higher and lower than 90%) | 0 (Herbicidal ratio of 5% or lower (almost no effect)) | 0 (Herbicidal ratio of 5% or lower (almost no effect)) | 4 (Herbicidal ratio of 70% or higher and lower than 90%) | 4 (Herbicidal ratio of 70% or higher and lower than 90%) | 0 (Herbicidal ratio of 5% or lower (almost no effect)) | 4 (Herbicidal ratio of 70% or higher and lower than 90%) | 5 (Herbicidal ratio of 90% or more (almost completely withered)) | 0 (Herbicidal ratio of 5% or lower (almost no effect)) | 5 (Herbicidal ratio of 90% or more (almost completely withered)) | 4 (Herbicidal ratio of 70% or higher and lower than 90%) | 
CSCCON=C(C)CC1CC(O)=C(c2c(C)cc(C)cc2C)C1=O (stereo not shown) [1-029] | 5 (Herbicidal ratio of 90% or more (almost completely withered)) | 5 (Herbicidal ratio of 90% or more (almost completely withered)) | 0 (Herbicidal ratio of 5% or lower (almost no effect)) | 5 (Herbicidal ratio of 90% or more (almost completely withered)) | 3 (Herbicidal ratio of 40% or higher and lower than 70%) | 5 (Herbicidal ratio of 90% or more (almost completely withered)) | 3 (Herbicidal ratio of 40% or higher and lower than 70%) | 3 (Herbicidal ratio of 40% or higher and lower than 70%) | 0 (Herbicidal ratio of 5% or lower (almost no effect)) | 5 (Herbicidal ratio of 90% or more (almost completely withered)) | 5 (Herbicidal ratio of 90% or more (almost completely withered)) | 0 (Herbicidal ratio of 5% or lower (almost no effect)) | 5 (Herbicidal ratio of 90% or more (almost completely withered)) | 5 (Herbicidal ratio of 90% or more (almost completely withered)) | 3 (Herbicidal ratio of 40% or higher and lower than 70%) | 5 (Herbicidal ratio of 90% or more (almost completely withered)) | 5 (Herbicidal ratio of 90% or more (almost completely withered)) | 
CON=C(C)CC1CC(OC(=O)C(C)(C)Oc2ccccc2Cl)=C(c2c(C)cc(C)cc2C)C1=O (stereo not shown) [1-064] | 5 (Herbicidal ratio of 90% or more (almost completely withered)) | 5 (Herbicidal ratio of 90% or more (almost completely withered)) | 3 (Herbicidal ratio of 40% or higher and lower than 70%) | 3 (Herbicidal ratio of 40% or higher and lower than 70%) | 1 (Herbicidal ratio of 5% or higher and lower than 20%) | 5 (Herbicidal ratio of 90% or more (almost completely withered)) | 5 (Herbicidal ratio of 90% or more (almost completely withered)) | 0 (Herbicidal ratio of 5% or lower (almost no effect)) | 0 (Herbicidal ratio of 5% or lower (almost no effect)) | 5 (Herbicidal ratio of 90% or more (almost completely withered)) | 5 (Herbicidal ratio of 90% or more (almost completely withered)) | 2 (Herbicidal ratio of 20% or higher and lower than 40%) | 5 (Herbicidal ratio of 90% or more (almost completely withered)) | 5 (Herbicidal ratio of 90% or more (almost completely withered)) | 4 (Herbicidal ratio of 70% or higher and lower than 90%) | 5 (Herbicidal ratio of 90% or more (almost completely withered)) | 5 (Herbicidal ratio of 90% or more (almost completely withered)) | 
CC(CC1CC(O)=C(c2c(C)cc(C)cc2C)C1=O)=NOCC(=O)N1CCOCC1 (stereo not shown) [1-025] | 5 (Herbicidal ratio of 90% or more (almost completely withered)) | 4 (Herbicidal ratio of 70% or higher and lower than 90%) | 0 (Herbicidal ratio of 5% or lower (almost no effect)) | 5 (Herbicidal ratio of 90% or more (almost completely withered)) | 4 (Herbicidal ratio of 70% or higher and lower than 90%) | 5 (Herbicidal ratio of 90% or more (almost completely withered)) | 3 (Herbicidal ratio of 40% or higher and lower than 70%) | 4 (Herbicidal ratio of 70% or higher and lower than 90%) | 0 (Herbicidal ratio of 5% or lower (almost no effect)) | 5 (Herbicidal ratio of 90% or more (almost completely withered)) | 5 (Herbicidal ratio of 90% or more (almost completely withered)) | 0 (Herbicidal ratio of 5% or lower (almost no effect)) | 5 (Herbicidal ratio of 90% or more (almost completely withered)) | 5 (Herbicidal ratio of 90% or more (almost completely withered)) | 4 (Herbicidal ratio of 70% or higher and lower than 90%) | 5 (Herbicidal ratio of 90% or more (almost completely withered)) | 5 (Herbicidal ratio of 90% or more (almost completely withered)) | 
CON=C(C)CC1CC(OC(=O)COc2ccc(Br)cc2)=C(c2c(C)cc(C)cc2C)C1=O (stereo not shown) [1-081] |  |  |  |  |  |  |  |  |  |  | 5 (Herbicidal ratio of 90% or more (almost completely withered)) |  |  | 5 (Herbicidal ratio of 90% or more (almost completely withered)) |  |  |  | F: Digitaria ciliaris, herbicidal effect (criteria 0-5) [1]: 5 (Herbicidal ratio of 90% or more (almost completely withered)); b: directly sowed rice plant, effect on crop (criteria 0-5) [2]: 5 (Herbicidal ratio of 90% or more (almost completely withered)); e: wheat, effect grade on crop ([3]; 320 g/ha): 4 (Herbicidal ratio of 70% or higher and lower than 90%); K: Lolium multiflorum Lam., herbicidal effect (criteria 0-5) [4]: 5 (Herbicidal ratio of 90% or more (almost completely withered)); P: Stellaria media, herbicidal effect (criteria 0-5) [5]: 0 (Herbicidal ratio of 5% or lower (almost no effect)); G: Setaria viridis, herbicidal effect grade ([6]; 320 g/ha): 5 (Herbicidal ratio of 90% or more (almost completely withered)); c: corn, effect on crop (criteria 0-5) [7]: 5 (Herbicidal ratio of 90% or more (almost completely withered)); O: Chenopodium album, herbicidal effect (criteria 0-5) [8]: 3 (Herbicidal ratio of 40% or higher and lower than 70%); P: Stellaria media, herbicidal effect grade ([9]; 320 g/ha): 0 (Herbicidal ratio of 5% or lower (almost no effect)); J: Alopecurus myosuroides, herbicidal effect (criteria 0-5) [10]: 5 (Herbicidal ratio of 90% or more (almost completely withered)); d: soybean, effect grade on crop ([12]; 320 g/ha): 1 (Herbicidal ratio of 5% or higher and lower than 20%); L: Apera spica-venti, herbicidal effect (criteria 0-5) [13]: 5 (Herbicidal ratio of 90% or more (almost completely withered)); g: rapeseed, effect grade on crop ([15]; 320 g/ha): 4 (Herbicidal ratio of 70% or higher and lower than 90%); L: Apera spica-venti, herbicidal effect grade ([16]; 320 g/ha): 5 (Herbicidal ratio of 90% or more (almost completely withered)); I: Avena fatua, herbicidal effect (criteria 0-5) [17]: 5 (Herbicidal ratio of 90% or more (almost completely withered))
